Patent publication US9796700B2 (Celgene CAR LLC, priority 2013, dated 2017)

target: Erk1 (Homo sapiens (Human), UniProt P27361); experiment: Protein Mass Modification Assay (intact protein MALDI); type: binding
In short: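 Human Erk1 was incubated 60 min at room temperature with a 10-fold molar excess of compound, then analysed as intact protein by MALDI with sinapinic acid matrix. The centroid mass shift versus untreated protein was divided by compound molecular weight to give percent modified protein.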

Chain of Erk1 (P27361 whole entry, looked up): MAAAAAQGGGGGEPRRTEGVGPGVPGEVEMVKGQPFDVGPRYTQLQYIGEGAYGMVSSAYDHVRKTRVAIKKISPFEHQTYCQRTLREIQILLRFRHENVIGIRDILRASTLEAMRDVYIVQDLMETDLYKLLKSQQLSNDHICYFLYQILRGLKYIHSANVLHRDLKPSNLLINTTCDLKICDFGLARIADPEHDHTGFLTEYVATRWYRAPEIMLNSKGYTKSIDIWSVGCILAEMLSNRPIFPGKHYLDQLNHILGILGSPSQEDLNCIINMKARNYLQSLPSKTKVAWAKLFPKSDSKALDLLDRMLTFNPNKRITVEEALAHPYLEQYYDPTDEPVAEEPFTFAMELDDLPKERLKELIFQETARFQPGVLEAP

Row | Structure (SMILES) | ERK1 Mass Mod (%)
1 | C=CC(=O)Nc1ccccc1Nc1nc(Nc2cc(C(N)=O)c(OCCCNC(=O)C#CC)cc2C)ncc1Cl [Compound I-305, 5-((4-((2-acrylamidophenyl)amino)-5-chloropyrimidin-2-yl)amino)-2-(3-(but-2-ynamido)propoxy)-4-methylbenzamide] | E (provided a mass modification of ≧70%)
2 | O=C(CCCl)Nc1ccccc1Nc1nc(N[C@H]2CCCN(C(=O)CO)C2)ncc1C(F)(F)F [Compound I-22, (S)-3-Chloro-N-(2-((2-((1-(2-hydroxyacetyl)piperidin-3-yl)amino)-5-(trifluoromethyl)pyrimidin-4-yl)amino)phenyl)propanamide] | G (proived a mass modification ≦30%)
3 | C=CC(=O)Nc1ccccc1Nc1nc(NC2CCCCC2)ncc1Cl [Compound I-107, N-(2-((5-chloro-2-(cyclohexylamino)pyrimidin-4-yl)amino)phenyl) acrylamide] | E (provided a mass modification of ≧70%)
4 | C=CC(=O)Nc1ccccc1Nc1nc(N[C@@H]2CCN(C(C)=O)C2)ncc1C(F)(F)F [Compound I-60, (R)—N-(2-((2-((1-Acetylpyrrolidin-3-yl)amino)-5-(trifluoromethyl)pyrimidin-4-yl)amino)phenyl)acrylamide] | E (provided a mass modification of ≧70%)
5 | C=CC(=O)Nc1cc(C)ccc1Nc1nc(Nc2cc(C(=O)NC)c(F)cc2C)ncc1Cl [Compound I-233, 5-((4-((2-acrylamido-4-methylphenyl)amino)-5-chloropyrimidin-2-yl)amino)-2-fluoro-N,4-dimethylbenzamide] | E (provided a mass modification of ≧70%)
6 | C=CC(=O)Nc1ccccc1Oc1nc(Nc2ccc(N3CCC[C@@H]3C(N)=O)cc2OC)ncc1C(N)=O [Compound I-266, (R)-4-(2-acrylamidophenoxy)-2-((4-(2-carbamoylpyrrolidin-1-yl)-2-methoxyphenyl)amino)pyrimidine-5-carboxamide] | E (provided a mass modification of ≧70%)
7 | C=CC(=O)Nc1cc(C)ccc1Nc1nc(Nc2ccncc2C)ncc1Cl [Compound I-236, N-(2-((5-chloro-2-((3-methylpyridin-4-yl)amino)pyrimidin-4-yl)amino)-5-methylphenyl)acrylamide] | E (provided a mass modification of ≧70%)
8 | C#CC(=O)NCCCOc1cc(C)c(Nc2ncc(Cl)c(Nc3ccccc3NC(=O)C=C)n2)cc1C(N)=O [Compound I-227, 5-((4-((2-acrylamidophenyl)amino)-5-chloropyrimidin-2-yl)amino)-4-methyl-2-(3-propiolamidopropoxy)benzamide] | E (provided a mass modification of ≧70%)
9 | C=CC(=O)Nc1ccccc1Nc1nc(N[C@H]2CCCN(C(=O)C(C)(C)O)C2)ncc1Cl [Compound I-135, (S)—N-(2-((5-chloro-2-((1-(2-hydroxy-2-methylpropanoyl)piperidin-3-yl)amino)pyrimidin-4-yl)amino)phenyl)acrylamide] | E (provided a mass modification of ≧70%)
10 | C=CC(=O)Nc1cc(C)ccc1Nc1nc(Nc2nc(OC)ncc2OC)ncc1C(F)(F)F [Compound I-349, N-(2-((2-((2,5-dimethoxypyrimidin-4-yl)amino)-5-(trifluoromethyl)pyrimidin-4-yl)amino)-5-methylphenyl)acrylamide] | E (provided a mass modification of ≧70%)
11 | C=CC(=O)Nc1ccccc1Nc1nc(Nc2ccc(N(CCCNC(=O)OC(C)(C)C)C(C)=O)cc2C(F)(F)F)ncc1Cl [Compound I-169, tert-butyl (3-(N-(4-((4-((2-acrylamidophenyl)amino)-5-chloropyrimidin-2-yl)amino)-3-(trifluoromethyl)phenyl)acetamido)propyl)carbamate] | E (provided a mass modification of ≧70%)
12 | C=CC(=O)Nc1ccccc1Nc1nc(N[C@@H]2CCC[C@H](C(=O)NOC)C2)ncc1Cl (racemic) [Compound I-203, Rac-cis-3-((4-((2-acrylamidophenyl)amino)-5-chloropyrimidin-2-yl)amino)-N-methoxy-cyclohexanecarboxamide] | E (provided a mass modification of ≧70%)
13 | C=CC(=O)Nc1ccccc1Nc1nc(N[C@H]2CCCN(C(=O)C=O)C2)ncc1C(F)(F)F [Compound I-52, (S)—N-(2-((2-((1-(2-Oxoacetyl)piperidin-3-yl)amino)-5-(trifluoromethyl)pyrimidin-4-yl)amino)phenyl)acrylamide] | E (provided a mass modification of ≧70%)
14 | C=CC(=O)Nc1ccccc1Nc1nc(Nc2cc(OC)ccc2C)ncc1C(F)(F)F [Compound I-340, N-(2-((2-((5-methoxy-2-methylphenyl)amino)-5-(trifluoromethyl)pyrimidin-4-yl)amino)phenyl)acrylamide] | E (provided a mass modification of ≧70%)
15 | C=CC(=O)Nc1cc(C)ccc1Nc1nc(Nc2cc(C)nc(OC)c2)ncc1C(F)(F)F [Compound I-295, N-(2-((2-((2-methoxy-6-methylpyridin-4-yl)amino)-5-(trifluoromethyl)pyrimidin-4-yl)amino)-5-methylphenyl)acrylamide] | E (provided a mass modification of ≧70%)
16 | C=CC(=O)N[C@@H]1CCCC[C@H]1Nc1nc(Nc2cc(C(=O)NOCCO)ccc2C)ncc1C(N)=O (racemic) [Compound I-257, Rac-trans-4-((2-acrylamidocyclohexyl)amino)-2-((5-((2-hydroxyethoxy)carbamoyl)-2-methylphenyl)amino)pyrimidine-5-carboxamide] | G (proived a mass modification ≦30%)
17 | C=CC(=O)Nc1cc(C)c(F)cc1Nc1nc(Nc2cc(OC)ncc2C)ncc1C(F)(F)F [Compound I-366, N-(4-fluoro-2-((2-((2-methoxy-5-methylpyridin-4-yl)amino)-5-(trifluoromethyl)pyrimidin-4-yl)amino)-5-methylphenyl)acrylamide] | E (provided a mass modification of ≧70%)
18 | C=CC(=O)Nc1ccccc1Nc1nc(Nc2cc(C(=O)NCCO)c(F)cc2C)ncc1Cl [Compound I-232, 5-((4-((2-acrylamidophenyl)amino)-5-chloropyrimidin-2-yl)amino)-2-fluoro-N-(2-hydroxyethyl)-4-methylbenzamide] | E (provided a mass modification of ≧70%)
19 | C=CC(=O)Nc1ccccc1Nc1nc(Nc2cc(C(=O)NOCCO)ccc2C)ncc1C(F)(F)F [Compound I-73, 3-((4-((2-Acrylamidophenyl)amino)-5-(trifluoromethyl)pyrimidin-2-yl)amino)-N-(2-hydroxyethoxy)-4-methylbenzamide] | E (key: E: provided a mass modification of ≧70%; F: provided a mass modification of 31-69%; G: proived a mass modification ≦30%)
20 | C=CC(=O)Nc1ccccc1Nc1nc(Nc2ccc(N3CCOCC3)cc2OC)ncc1C(=O)NC [Compound I-250, 4-(2-acrylamidophenylamino)-2-(2-methoxy-4-morpholinophenylamino)-N-methylpyrimidine-5-carboxamide] | G (proived a mass modification ≦30%)
21 | C=CC(=O)Nc1ccccc1Nc1nc(Nc2ccc(NC(=O)CCCC(=O)NCCCOCCOCCOCCCNC(=O)CCCC[C@H]3SC[C@H]4NC(=O)N[C@H]43)cc2OC)ncc1Cl [Compound I-301, N^1-(4-((4-((2-acrylamidophenyl)amino)-5-chloropyrimidin-2-yl)amino)-3-methoxyphenyl)-N^5-(15-oxo-19-((3aR,4R,6aS)-2-oxohexahydro-1H-thieno[3,4-d]imidazol-4-yl)-4,7,10-trioxa-14-azanonadecyl)glutaramide] | E (provided a mass modification of ≧70%)
22 | C=CC(=O)Nc1ccccc1Nc1nc(Nc2ccc(N(CC)C(C)=O)cc2OC)ncc1Cl [Compound I-155, N-(2-((5-chloro-2-((4-(N-ethylacetamido)-2-methoxyphenyl)amino)pyrimidin-4-yl)amino)phenyl)acrylamide] | E (provided a mass modification of ≧70%)
23 | C=CC(=O)N(C)c1ccccc1Nc1nc(N[C@@H]2CCC[C@H](C(=O)NOC)C2)ncc1Cl (racemic) [Compound I-106, Rac-cis-3-((5-chloro-4-((2-(N-methylacrylamido)phenyl)amino)pyrimidin-2-yl)amino)-N-methoxycyclohexanecarboxamide] | F (provided a mass modification of 31-69%)
24 | C=CC(=O)Nc1ccccc1Nc1nc(Nc2ccc(F)cc2C)ncc1Cl [Compound I-209, N-(2-((5-chloro-2-((4-fluoro-2-methylphenyl)amino)pyrimidin-4-yl)amino)phenyl)acrylamide] | F (provided a mass modification of 31-69%)
25 | C=CC(=O)Nc1ccccc1Nc1nc(N[C@H]2CCN(C(=O)CO)C2)ncc1C(F)(F)F [Compound I-57, (S)—N-(2-((2-((1-(2-Hydroxyacetyl)pyrrolidin-3-yl)amino)-5-(trifluoromethyl)pyrimidin-4-yl)amino)phenyl)acrylamide] | F (provided a mass modification of 31-69%)
26 | C=CC(=O)Nc1cc(F)ccc1Nc1nc(N[C@@H]2CCC[C@H](C(N)=O)C2)ncc1C(F)(F)F (racemic) [Compound I-5, Rac-cis-3-((4-((2-acrylamido-4-fluorophenyl)amino)-5-(trifluoromethyl)pyrimidin-2-yl)amino)cyclohexanecarboxamide] | E (provided a mass modification of ≧70%)
27 | C=C(C)C(=O)Nc1cc(F)ccc1Nc1nc(N[C@@H]2CCC[C@H](C(N)=O)C2)ncc1Cl (racemic) [Compound I-114, Rac-cis-3-((5-chloro-4-((4-fluoro-2-methacrylamidophenyl)amino)pyrimidin-2-yl)amino)cyclohexanecarboxamide] | F (provided a mass modification of 31-69%)
28 | C=CC(=O)Nc1cc(OC)ccc1Nc1nc(Nc2ccc(N(CC)C(C)=O)cc2OC)ncc1Cl [Compound I-175, N-(2-((5-chloro-2-((4-(N-ethylacetamido)-2-methoxyphenyl)amino)pyrimidin-4-yl)amino)-5-methoxyphenyl)acrylamide] | E (provided a mass modification of ≧70%)
